Literature values in patent US11534458B2, “Phosphorus-sparing nutritional composition” (Albion Laboratories, Inc., priority 2013, dated 2022).
Where two headings read alike, the source gives them in different places.

Assays:
healthy young women = settings: for iron absorption increased by a factor of: phytase 10 mg (190 FTU), maize porridge meal
[1] = phytate-rich diet

In the case of O=C1O[C@H]([C@@H](O)CO)C(O)=C1O [ascorbic acid, reference compound], the “effect on iron absorption” value (healthy young women; ascorbic acid alone, iron from NaFeEDTA) is given as “little effect” and the iron absorption [1] is given as “markedly improved”.

For [Ca+2] [calcium], the “decrease of phosphorus absorption” value (for each 500 mg (12.5 mmol) supplemental calcium ingested) is given as 5.4 mmol and the “decrease of phosphorus absorption” value (for every 500 mg elemental calcium equivalent ingested) is given as 166 mg.

B1: Recombinant A. niger phytase: recombinant Aspergillus niger phytase (microbial 3-phytase enzyme) of literature studies (protein, UniProt P34752 24-467, looked up)
Phytase A: ASRNQSSCDTVDQGYQCFSETSHLWGQYAPFFSLANESVISPEVPAGCRVTFAQVLSRHGARYPTDSKGKKYSALIEEIQQNATTFDGKYAFLKTYNYSLGADDLTPFGEQELVNSGIKFYQRYESLTRNIVPFIRSSGSSRVIASGKKFIEGFQSTKLKDPRAQPGQSSPKIDVVISEASSSNNTLDPGTCTVFEDSELADTVEANFTATFVPSIRQRLENDLSGVTLTDTEVTYLMDMCSFDTISTSTVDTKLSPFCDLFTHDEWINYDYLQSLKKYYGHGAGNPLGPTQGVGYANELIARLTHSPVHDDTSSNHTLDSSPATFPLNSTLYADFSHDNGIISILFALGLYNGTKPLSTTTVENITQTDGFSSAWTVPFASRLYVEMMQCQAEQEPLVRVLVNDRVVPLHGCPVDALGRCTRDSFVRGLSFARSGGDWAECFA
For B1, the “iron absorption increased by a factor of” value (healthy young women; iron given as FeSO4) is listed as 1.71 and the “iron absorption increased by a factor of” value (healthy young women; iron given as NaFeEDTA) is listed as 1.23.
